Patent US10421743B2, “Tetrahydroisoquinolines as PRMT5 inhibitors” (CTXT PTY LTD, priority 2016, dated 2019)
Read-outs that look alike come from different tables or passages of the source.

Legend:
[1] = biological target: Full-length PRMT5 enzyme co-expressed with His6-MEP50 (Homo sapiens (Human), UniProt O14744); assay: PRMT5 Biochemical Assay (Transcreener EPIGEN methyltransferase, fluorescence polarisation); conditions: histone H4 derived peptide substrate 1 μM, 1 μM S-Adenosyl methionine, 4 hours at 37 degree Celsius
Full-length PRMT5 enzyme co-expressed with His6-MEP50, sequence (O14744 whole entry): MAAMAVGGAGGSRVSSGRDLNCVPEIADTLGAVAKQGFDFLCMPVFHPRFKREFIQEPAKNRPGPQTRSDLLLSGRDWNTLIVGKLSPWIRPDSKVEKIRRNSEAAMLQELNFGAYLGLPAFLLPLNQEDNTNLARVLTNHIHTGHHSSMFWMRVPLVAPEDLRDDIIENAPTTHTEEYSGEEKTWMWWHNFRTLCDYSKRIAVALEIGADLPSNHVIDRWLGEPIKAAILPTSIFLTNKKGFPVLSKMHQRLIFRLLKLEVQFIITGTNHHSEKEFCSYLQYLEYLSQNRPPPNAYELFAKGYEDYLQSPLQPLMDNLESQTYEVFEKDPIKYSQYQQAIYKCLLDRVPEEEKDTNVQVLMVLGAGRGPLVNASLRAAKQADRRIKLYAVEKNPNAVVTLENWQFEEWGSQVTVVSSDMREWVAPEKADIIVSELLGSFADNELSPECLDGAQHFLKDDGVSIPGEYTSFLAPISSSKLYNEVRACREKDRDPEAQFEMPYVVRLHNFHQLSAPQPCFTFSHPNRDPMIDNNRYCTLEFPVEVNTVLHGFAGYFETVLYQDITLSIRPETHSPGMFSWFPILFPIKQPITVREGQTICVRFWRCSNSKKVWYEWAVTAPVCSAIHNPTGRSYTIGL
Full-length PRMT5 enzyme co-expressed with His6-MEP50, sequence (Q9BQA1 whole entry partner): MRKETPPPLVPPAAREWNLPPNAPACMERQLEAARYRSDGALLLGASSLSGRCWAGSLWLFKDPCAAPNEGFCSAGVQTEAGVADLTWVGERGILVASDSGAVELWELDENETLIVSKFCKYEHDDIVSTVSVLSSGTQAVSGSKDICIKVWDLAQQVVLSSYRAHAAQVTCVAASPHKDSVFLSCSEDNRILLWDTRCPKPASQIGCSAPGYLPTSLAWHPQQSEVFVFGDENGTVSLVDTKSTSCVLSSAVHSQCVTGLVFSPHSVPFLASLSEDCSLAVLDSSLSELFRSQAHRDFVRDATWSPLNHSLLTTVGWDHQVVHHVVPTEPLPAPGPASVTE
Experimental: Compounds of the Invention may be Tested for In Vitro Activity in the Following Assay:
A histone H4 derived peptide is used as substrate (amino acid sequence: […]NH2). Full-length PRMT5 enzyme (NCBI Reference sequence NP_006100.2) was co-expressed with His6-MEP50 in insect cells and purified via Nickel immobilized metal affinity and gel filtration chromatography (“the enzyme”).
The 6 μL reactions are run in Greiner brand black 384-well low volume assay plates. All reactions contained assay buffer (phosphate buffered saline, 0.01% (v/v) Tween-20, 0.01% (w/v) albumin from chicken egg white, 1 mM Dithiothreitol, 1 μM peptide substrate, 1 μM S-Adenosyl methionine, and 15 ng/reaction enzyme, with the enzyme being omitted from negative control reactions. Compounds were added in a volume of 100 nL from dilution series prepared in DMSO, positive and negative control reactions receiving the same volume DMSO without compound. The plates were sealed with adhesive seals and incubated for 4 hours at 37 degree Celsius. Reaction progress was measured using the Transcreener™ EPIGEN methyltransferase assay (BellBrook Labs, Madison, Wis.) as recommended by the manufacturer. To each reaction 2 μL detection mix were added, containing coupling enzymes, fluorescence polarisation tracer, and AMP antibody. Plates were incubated for 90 minutes before being read on a Perkin Elmer EnVision™ plate reader in fluorescence polarisation mode. IC50 values were obtained from the raw readings by calculating percent inhibition (% I) for each reaction relative to controls on the same plate (% I=(I−CN)/(CP−CN) where CN/CP are the averages of the negative/positive reactions, respectively), then fitting the % I data vs. compound concentration [I] to % I=(A+((B−A)/(1+((C/[I])^D)))) where A is the lower asymptote, B is the upper asymptote, C is the IC50 value, and D is the slope.

[2] = test system: PRMT5 (symmetrical dimethylation of arginine in TE11 cells); assay: PRMT5 Biomarker Assay (symmetrical dimethylation of arginine, Di-Methyl Histone H4 Arginine 3); type: cell-based; conditions: Homo sapiens, TE-11, 72 hours incubation, anti-Di-Methyl Histone H4 Arginine 3 antibody
Experimental: Compounds of the Invention may be Tested for Potency to Inhibit Symmetrical Dimethylation of Arginine in the Following Assay:
The cell line TE11 was seeded at a density of 6,000 cells per well in 96 well optical quality tissue culture plates in DME medium and 10% foetal bovine serum, and allowed to adhere for 5 hours under standard culture conditions (37 degree Celsius, 5% CO2). Compound dilutions prepared in DMSO were added to the medium, with negative control wells reserved for treatment with DMSO only and maximum inhibition controls receiving a potent PRMT5 inhibitor compound at 1 μM concentration. After incubation for 72 hours, the cells were fixed with 3.7% formaldehyde in PBS for 30 minutes at room temperature, washed with phosphate buffer saline and blocked with Odyssey blocking buffer (LI-COR, Lincoln, Nebr.). Rabbit anti-Di-Methyl Histone H4 Arginine 3 specific antibody (Epigentek) in Odyssey blocking buffer was added and incubated for 14 hours at 4 degree Celsius. After washing, anti-rabbit secondary antibody labelled with Alexa647 dye (LifeTechnologies) and Hoechst 33342 (1 μg/mL, SigmaAldrich) were added for 1 hour incubation. Plates were washed and read on a PerkinElmer Envision 2103 in fluorescence intensity scanning mode (24 scans across the well area). The plates were imaged on a PerkinElmer Phenix high content imaging platform. Using a Columbus image analysis pipeline, individual nuclei were located by Hoechst 33342 stain and the methylation level was calculated from the Alexa647-related intensity in the same area. IC50 values were obtained from the mean Alexa647-related intensity per cell by calculating percent inhibition (% I) for each well relative to controls on the same plate (% I=(I−CN)/(CP−CN) where CN/CP are the averages of the negative/maximum inhibition controls, respectively), then fitting the % I data vs. compound concentration [I] to % I=(A+((B−A)/(1+((C/[I])^D)))) where A is the lower asymptote, B is the upper asymptote, C is the IC50 value, and D is the slope.

[3] = biological target: Full-length (FL)-PRMT5-MEP50 enzyme complex (Homo sapiens (Human), UniProt O14744); assay: PRMT5-MEP50 Enzyme Methylation Assay (SAMDI); type: biochemical; conditions: 0.5 nM PRMT5-MEP50, 75 nM biotinylated H4R3(Me1) peptide, 15 μM SAM, 150 minutes at 37° C.
Full-length (FL)-PRMT5-MEP50 enzyme complex, sequence (O14744 whole entry): as the sequence (O14744 whole entry) above
Full-length (FL)-PRMT5-MEP50 enzyme complex, sequence (Q9BQA1 whole entry partner): as the sequence (Q9BQA1 whole entry partner) above
Experimental: PRMT5-MEP50 Enzyme Methylation Assay
PRMT5/MEP50 biochemical assay is a direct measurement of the methylation activity of the enzyme complex on a short peptide substrate derived from the N-terminus of H4 histone. Methylation experiment is performed with recombinant protein. The assessment of inhibitory effect (IC50) of small molecules is measured by the effectiveness of the compounds to inhibit this reaction.
In this assay, the potency (IC50) of each compound was determined from a twenty-point (1:2 serial dilution; top compound concentration of 100000 nM) titration curve using the following outlined procedure. To each well of a white ProxiPlus 384 well-plate, 100 nL of compound (1% DMSO in final assay volume of 10 μL) was dispensed, followed by the addition of 8 μL of 1× assay buffer (50 mM Bicine pH 8.0, 1 mM DTT, 0.004% Tween20, 0.01% BSA) containing 0.5 nM of Full-length (FL)-PRMT5-MEP50 enzyme complex (recombinant proteins from baculovirus-transfected Sf21 cells: FL-PRMT5; MW=[…] and FL-MEP50; MW=38614). Plates were sealed and placed in a 37° C. humidified chamber for 30 minutes pre-incubation with compounds. Subsequently, each reaction was initiated by the addition of 2 μL 1× assay buffer containing 75 nM biotinylated H4R3(Me1) peptide, and 15 μM S-(5′-Adenosyl)-L-Methionine Chloride (SAM). The final reaction in each well of 10 μL consists of 0.5 nM PRMT5-MEP50,75 nM biotinylated-peptide, and 15 μM SAM. Methylation reactions were allowed to proceed for 150 minutes in a sealed plate at 37° C. Reactions were immediately quenched by the addition of 1 μL of 10% formic acid. Plates were then frozen and shipped to SAMDI™ Tech Inc. to determine the percent conversion from […]. IC50 values were determined by 7 parameters biphasic fit model plotting the percent product conversion vs. (Log10) compound concentrations.

[4] = test system: PRMT5 (symmetric dimethylation of arginine (SDMA) in MCF-7 cells); assay: PRMT5 Cell Target Engagement (TE) Assay (SDMA, high content imaging); type: cell-based; conditions: Homo sapiens, MCF7, 72 h, treated for 3 days, top compound concentration of 10000 nM
Source text: PRMT5 Cell Target Engagement (TE) Assay
The PRMT5 TE assay is a biomarker assay for identifying compounds that inhibit symmetric dimethylation of arginine (SDMA) of PRMT5 substrates. This assay detects symmetrically dimethylated nuclear proteins using high content imaging technology. Detection of the expression of symmetrically dimethylated nucleo proteins is through a mixture of primary rabbit monoclonal antibodies to SDMA (CST 13222), which in turn recognized by an Alexafluor 488 dye-conjugated anti-rabbit IgG secondary antibody. The IN Cell Analyzer 2200 measures nuclear Alexafluor 488 fluorescent dye intensity that is directly related to the level of expression of symmetrically dimethylated nuclear proteins at the single cell level. Nuclear AF488 dye intensities are compared to the mean value for DMSO treated cells […] to report percent of inhibition for each compound-treated well.
In this assay, the cell potency (EC50) of each compound was determined from a ten point (1:3 serial dilution; top compound concentration of 10000 nM) titration curve using the following outlined procedure. Each well of a BD falcon collagen coated black/clear bottom 384-well plate was seeded with 4000 MCF-7 cells and allowed to attach for 5 hours. Media from cell plate was removed at 0.5 mm above the bottom of the plate and replaced with 30 μL of fresh media containing 1.2× compounds in 0.1% DMSO. Cells were treated for 3 days in 37° C. CO2 incubator. On day 3, cells were fixed with Cytofix, permeabilized with 0.4% Triton-X-100/Cytofix, and washed with D-PBS without Ca/Mg. Cells were blocked with Licor Odessey blocking reagent for one hour at room temperature, followed by incubation with anti-SDMA (1:1000) antibody at 4° C. overnight. 1° antibody was removed, followed by three washings with DPBS without Ca/Mg and 0.05% Tween20. Hoechst (5 μg/ml), Cell Mask deep stain (1:2000) and Alexa488-conjugated goat anti-rabbit IgG (2 μg/mL) was added for 1 hour at room temperature. A final washing step (three washes) was performed before sealing plate for imaging on In Cell Analyzer 2200. Images from analyzer were uploaded to Columbus (at WP) for image analysis. IC50 values were determined by 4 parameters robust fit of percent fluorescence units vs. (Log10) compound concentrations.

[5] = Enzyme Methylation Assay (EC50—1, nM), first EC50 of biphasic fit
[6] = second EC50 of biphasic fit, read-out: Enzyme Methylation Assay (EC50—2)

Compound `CCOc1cc(C(=O)N2C3CCC2COC3)ccc1C(=O)NC[C@@H](O)[C@@H]1Cc2ccc(OC)cc2CN1` [Example 1, 4-(3-Oxa-8-azabicyclo[3.2.1]octane-8-carbonyl)-2-ethoxy-N—((R)-2-hydroxy-2-((S)-7-methoxy-1,2,3,4-tetrahydroisoquinolin-3-yl)ethyl)benzamide] has an IC50 [1] of 15 nM, an IC50 [2] of 0.19 nM and an EC50 [3, 5] of 0.27 nM. For the same compound, the EC50 ([3]; Enzyme Methylation Assay (EC50—2, nM), second EC50 of biphasic fit) was 5 nM and the EC50 [4] was 19 nM.

Work on `COc1ccc2c(c1)CN[C@H]([C@H](O)CNC(=O)c1ccc(C(=O)N3C4CCC3COC4)cc1)C2` [Example 2, 4-(3-Oxa-8-azabicyclo[3.2.1]octane-8-carbonyl)-N—((R)-2-hydroxy-2-((S)-7-methoxy-1,2,3,4-tetrahydroisoquinolin-3-yl)ethyl)benzamide] yielded an IC50 [1] of 18 nM, an IC50 [2] of 0.4 nM and an EC50 [3, 5] of 0.62 nM. For the same compound, the EC50 [3, 6] was 126 nM and the EC50 [4] was 17 nM.

For `CCOc1cc(C(=O)N2C3CCC2COC3)ccc1C(=O)NC[C@@H](O)[C@@H]1Cc2ccccc2CN1C` [Example 3, 4-(3-Oxa-8-azabicyclo[3.2.1]octane-8-carbonyl)-2-ethoxy-N—((R)-2-hydroxy-2-((S)-2-methyl-1,2,3,4-tetrahydroisoquinolin-3-yl)ethyl)benzamide 2,2,2-trifluoroacetate], the IC50 [1] was 1010 nM, the IC50 [2] was 7.12 nM and the EC50 [3, 5] was 47 nM. For the same compound, the EC50 [3, 6] was 574 nM and the EC50 [4] was 5440 nM.
